Results taken from patent publication US20260158009A1 (GENZYME CORPORATION, priority 2023, published 2026).

How the values were obtained:
[1] = target: T1, hRIPK1 (aa 1-375) fusion protein (Homo sapiens, UniProt Q13546); assay: ADP-Glo kinase assay: catalytic activity of RIPK1 (autophosphorylation, conversion of ATP to ADP); type: biochemical
T1 construct: hRIPK1 (aa 1-375) fusion protein
T1 sequence (Q13546 1-375): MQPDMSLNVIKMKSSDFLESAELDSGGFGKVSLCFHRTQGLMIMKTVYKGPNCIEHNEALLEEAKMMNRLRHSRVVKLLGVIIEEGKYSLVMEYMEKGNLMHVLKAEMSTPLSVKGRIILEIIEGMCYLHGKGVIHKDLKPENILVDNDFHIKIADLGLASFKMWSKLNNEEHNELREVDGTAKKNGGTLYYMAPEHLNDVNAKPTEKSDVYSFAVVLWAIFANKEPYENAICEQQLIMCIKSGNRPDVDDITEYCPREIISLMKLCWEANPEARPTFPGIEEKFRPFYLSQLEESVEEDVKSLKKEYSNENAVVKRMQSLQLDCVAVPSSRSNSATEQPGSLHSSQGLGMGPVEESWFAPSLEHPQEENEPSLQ
Procedure, shortened: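 hRIPK1 (aa 1-375) fusion protein (3.6 μg/ml final) was preincubated 30 min at rt with compound (33300-1.69 nM, 1% DMSO), then 50 μM ATP was added for 240 min at rt. ADP from autophosphorylation was measured by ADP-Glo luminescence and curves fitted by nonlinear regression.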

[2] = tested on: U937 cells; assay: Cellular assay in U937 cells: activity of RIPK1 inhibitors on TNFα/zVAD.fmk-induced cell death (necroptosis), CellTiter 96 AQueous (MTS) readout; type: cell-based; conditions: Homo sapiens, U-937
Procedure, shortened: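 Necroptosis was measured by viable-cell MTS reduction (4 h, absorbance 490 nm) after overnight (18–24 h) 37° C culture. Cell suspensions of U937 cells carried TNFα (100 ng/ml) plus zVAD.fmk (50 μM) before compound was added. A 10-point curve (10 μM–0.26 nM or 1 μM–0.07 nM) was run in duplicate, normalised to the control lacking TNFα/zVAD.fmk.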

Row | Structure (SMILES) | IC50 [1] [nM] | IC50 [2] [nM]
1 | Cc1ccc([C@@H]2CCON2C(=O)[C@H]2CC[C@H](Cc3ccc(C)nn3)CC2)cn1 [compound 387, trans-[4-[(6-methylpyridazin-3-yl)methyl]cyclohexyl]-[(3S)-3-(6-methylpyridin-3-yl)-1,2-oxazolidin-2-yl]methanone] | 995 | 1880
2 | Cc1ccc([C@@H]2CCON2C(=O)[C@H]2CC[C@H](Cc3cc(C)ncc3Cl)CC2)cn1 [compound 389, trans-[4-[(5-chloro-2-methylpyridin-4-yl)methyl]cyclohexyl]-[(3S)-3-(6-methylpyridin-3-yl)-1,2-oxazolidin-2-yl]methanone] | 20 | 13
3 | Cc1ccc([C@@H]2CCON2C(=O)[C@H]2CC[C@H](Cc3ccc4nc(N)nn4c3)CC2)cn1 [compound 391, [4-[(2-amino-[1,2,4]triazolo[1,5-a]pyridin-6-yl)methyl]cyclohexyl]-[(3S)-3-(6-methylpyridin-3-yl)-1,2-oxazolidin-2-yl]methanone] | 63 | 64
4 | Cc1cc(C[C@H]2CC[C@H](C(=O)N3OCC[C@H]3c3cnccn3)CC2)c(F)cn1 [compound 394, trans-[4-[(5-fluoro-2-methylpyridin-4-yl)methyl]cyclohexyl]-[(3S)-3-pyrazin-2-yl-1,2-oxazolidin-2-yl]methanone] | 14 | 5
5 | Cc1cnc([C@@H]2CCON2C(=O)[C@H]2CC[C@H](Cc3ccnn3C)CC2)cn1 [compound 395, trans-[(3S)-3-(5-methylpyrazin-2-yl)-1,2-oxazolidin-2-yl]-[4-[(2-methylpyrazol-3-yl)methyl]cyclohexyl]methanone] | 44 | 45
6 | Cc1cc(C[C@H]2CC[C@H](C(=O)N3OCC[C@H]3c3cnccn3)CC2)c(Cl)cn1 [compound 396, trans-[4-[(5-chloro-2-methylpyridin-4-yl)methyl]cyclohexyl]-[(3S)-3-pyrazin-2-yl-1,2-oxazolidin-2-yl]methanone] | 14 | 4
7 | Cc1ccc([C@@H]2CCON2C(=O)[C@H]2CC[C@H](Cc3ccnn3C)CC2)cn1 [compound 397, trans-[4-[(2-methylpyrazol-3-yl)methyl]cyclohexyl]-[(3S)-3-(6-methylpyridin-3-yl)-1,2-oxazolidin-2-yl]methanone] | 61 | 163
8 | Cc1ccc([C@@H]2CCON2C(=O)[C@]2(C)CC[C@@H](Cc3cc(C)c4nc(C)nn4c3)CC2)cn1 [compound 400, trans-[4-[(2,8-dimethyl-[1,2,4]triazolo[1,5-a]pyridin-6-yl)methyl]-1-methylcyclohexyl]-[(3S)-(6-methylpyridin-3-yl)-1,2-oxazolidin-2-yl]methanone] | 19 | 9
9 | Cc1nc2c(C)cc(C[C@H]3CC[C@@](C)(C(=O)N4OCC[C@H]4c4cnc(C)c(F)c4)CC3)cn2n1 [compound 402] | 2000 | 1130
10 | Cc1nc2c(C)cc(C[C@H]3CC[C@](C)(C(=O)N4OCC[C@H]4c4cnc(C)c(F)c4)CC3)cn2n1 [compound 403, trans-[4-[(2,8-dimethyl-[1,2,4]triazolo[1,5-a]pyridin-6-yl)methyl]-1-methylcyclohexyl]-[(3S)-3-(5-fluoro-6-methylpyridin-3-yl)-1,2-oxazolidin-2-yl]methanone] | 15 | 2
11 | Cc1cncc([C@@H]2CCON2C(=O)[C@H]2CC[C@H](Cc3cc(C)c4nc(C)nn4c3)CC2)n1 [compound 411, trans-[4-[(2,8-dimethyl-[1,2,4]triazolo[1,5-a]pyridin-6-yl)methyl]cyclohexyl]-[(3S)-3-(6-methylpyrazin-2-yl)isoxazolidin-2-yl]methanone] | 48 | 36

Further lines, with some results ahead:

Row | IC50 [1] [nM] | Structure (SMILES) | IC50 [2] [nM]
12 | 97 | Cc1ccc(C[C@H]2CC[C@H](C(=O)N3OCC[C@H]3c3cnc(C)c(F)c3)CC2)nn1 [compound 388, trans-[(3S)-3-(5-fluoro-6-methylpyridin-3-yl)-1,2-oxazolidin-2-yl]-[4-[(6-methylpyridazin-3-yl)methyl]cyclohexyl]methanone] | 176
13 | 32 | Cc1ncc([C@@H]2CCON2C(=O)[C@H]2CC[C@H](Cc3cc(F)c4ncnn4c3)CC2)cc1F [compound 392, trans-[(3S)-3-(5-fluoro-6-methylpyridin-3-yl)-1,2-oxazolidin-2-yl]-[4-[(8-fluoro-[1,2,4]triazolo[1,5-a]pyridin-6-yl)methyl]cyclohexyl]methanone] | 18
14 | 51 | Cc1ncc(C[C@H]2CC[C@H](C(=O)N3OCC[C@H]3c3cnc(C)c(F)c3)CC2)c(C)n1 [compound 393, [4-[(2,4-dimethylpyrimidin-5-yl)methyl]cyclohexyl]-[(3S)-3-(5-fluoro-6-methylpyridin-3-yl)-1,2-oxazolidin-2-yl]methanone] | 33
15 | 64 | Cc1cc(C[C@H]2CC[C@H](C(=O)N3OCC[C@H]3c3cnc(C)c(F)c3)CC2)cnn1 [compound 398, trans-[(3S)-3-(5-fluoro-6-methylpyridin-3-yl)-1,2-oxazolidin-2-yl]-[4-[(6-methylpyridazin-4-yl)methyl]cyclohexyl]methanone] | 182
16 | 85 | Cc1ncc(C[C@H]2CC[C@H](C(=O)N3OCC[C@H]3c3cnc(C)c(F)c3)CC2)c(C(F)(F)F)n1 [compound 399, [(3S)-3-(5-fluoro-6-methylpyridin-3-yl)-1,2-oxazolidin-2-yl]-[4-[[2-methyl-4-(trifluoromethyl)pyrimidin-5-yl]methyl]cyclohexyl]methanone] | 274
17 | 15 | Cc1ncc([C@@H]2CCON2C(=O)[C@H]2CC[C@H](Cc3ccnn3C)CC2)cc1F [compound 404, trans-[(3S)-3-(5-fluoro-6-methylpyridin-3-yl)-1,2-oxazolidin-2-yl]-[4-[(2-methylpyrazol-3-yl)methyl]cyclohexyl]methanone] | 22
18 | 46 | Cc1cnc([C@@H]2CCON2C(=O)[C@H]2CC[C@H](Cc3cc(C)c4ncnn4c3)CC2)cn1 [compound 409, trans-[(3S)-3-(5-methylpyrazin-2-yl)-1,2-oxazolidin-2-yl]-[4-[(8-methyl-[1,2,4]triazolo[1,5-a]pyridin-6-yl)methyl]cyclohexyl]methanone] | 66
